The experiment addresses T1, Human AMPK α2ß2γ1 (Homo sapiens, UniProt O43741+P54646).
T1 construct: The full length cDNAs of human AMPK ß2 (NM_005399.3) and human AMPK α2 (NM_006252.3); The full length cDNAs of human AMPK ß2 (NM_005399.3); 6xHis (N); made in house; host or cells: Escherichia coli BL21 CodonPlus (DE3)-RIL
Briefly: Test Example 2: evaluation of an activator for AMP-activated protein kinase (AMPK), LabChip mobility shift assay with CaMKK2-phosphorylated enzyme. As to conditions: for EC150 (compound concentration showing 150% relative to the control (100%)): FL-Peptide 7 substrate, 25° C., 2 hours; for Emax: relative to control (100%), read-out: Emax (maximum rate of increase in activity within the measurement range). Format: biochemical. The method, then:
The full length cDNAs of human AMPK ß2 (NM_005399.3) and human AMPK α2 (NM_006252.3) were inserted into the MCS1 and MCS2 of the pETDuet-1 vector to prepare a human AMPK ß2 and human AMPK α2 (6× His tag at the 5′ terminus) expressing plasmid. The plasmid was cotransfected with an expression plasmid, in which the full length cDNA of human AMPK γ1 (NM_002733.3) had been inserted into pET28b(+), into BL21 CodonPlus (DE3)-RIL to obtain an expression strain. The expression strain was cultured in TB medium, followed by induction with 0.5 mM IPTG, and cultured at 25° C. for 3 hours and then harvested. After ultrasonication, supernatant was collected and applied to Histrap FF column (GE) and RESOURCE Q column (GE) to prepare 12.5 mg of purified sample containing three types of subunit from 1.8 L of broth.
Preparation method of human CaMKK2 used to impart activity to AMPK An expression vector, in which the full length cDNA of human CAMKK ß (NM_172226.1) had been inserted into pGEX-6P-3, was transfected into BL21 Star (DE3). The expression strain was cultured in TB medium, followed by induction with 0.5 mM IPTG, and cultured at 25° C. for 3 hours and then harvested. After ultrasonication, supernatant was collected and applied to GSTrap FF column (GE) to prepare 14 mg of GST-fused CAMKK ß from 720 ml of broth.
Thus, phosphorylation treatment was carried out as pretreatment.
Human AMPK α2ß2γ1 in an amount to give a conversion rate of approximately 10% by reaction for 2 hours, and CaMKK2 in an amount capable of sufficiently imparting activity to AMPK for one hour were mixed in a buffer solution consisting of a 50 mM HEPES-NaOH buffer solution (pH 7.0), 100 mM NaCl, 5 mM magnesium chloride, 0.1% bovine serum albumin, 0.2 mM sodium orthovanadate(V), 1 mM ethylene glycol-bis(2-aminoethyl ether)-N,N,N′,N′-tetraacetic acid (EGTA), 5 mM disodium ß-glycerophosphate, 1 mM dithiothreitol and 0.2 mM ATP, and the resulting liquid was left to stand at 25° C. for 1 to 1.5 hours to sufficiently phosphorylate AMPK.
After that, to the enzyme liquid, which had been subjected to phosphorylation treatment, a compound dissolved in DMSO was added so as to have a 1% DMSO concentration. The resulting liquid was left to stand for 10 minutes.
To the liquid, a substrate solution consisting of a 50 mM HEPES-NaOH buffer solution (pH 7.0), 100 mM NaCl, 10 mM magnesium chloride, 0.1% bovine serum albumin, 0.2 mM sodium orthovanadate(V), 1 mM ethylene glycol-bis(2-aminoethyl ether)-N,N,N′,N′-tetraacetic acid (EGTA), 5 mM disodium ß-glycerophosphate, 2 mM dithiothreitol, 0.4 mM ATP and 3 μM FL-Peptide 7 (manufactured by Caliper Life Sciences, Inc.) was added in equal amount (10 μl in total). The resulting liquid was allowed to react at 25° C. for 2 hours, and 10 μl of 20 mM EDTA was added thereto to stop the reaction.
To detect phosphorylated fluorescent substrates, the reaction mixture was applied to a measuring device, LabChip EZ Reader II manufactured by Caliper Life Science, Inc., for detecting fluorescence by using differences in mobility due to differences in charge. The setting conditions for the device were pressure, −1.5 PSI; upstream voltage, −2250 V; downstream voltage, −400 V; post sample buffer sip time, 40 seconds; final delay, 120 seconds; and peak order, Product First.
A conversion rate was calculated from the peak heights of the obtained substrate and product. The conversion rate when not containing a compound was used as a control, and a concentration dependent curve was made by plotting the rate of increase in activity to the control at each concentration of a compound.

This is an account of results in patent US20190135834A1, “5-SUBSTITUTED AZABENZIMIDAZOLE DERIVATIVE HAVING ???? ACTIVATION ACTION” (Shionogi & Co., Ltd., priority 2016, published 2019).

T1 sequence (P54646 whole entry): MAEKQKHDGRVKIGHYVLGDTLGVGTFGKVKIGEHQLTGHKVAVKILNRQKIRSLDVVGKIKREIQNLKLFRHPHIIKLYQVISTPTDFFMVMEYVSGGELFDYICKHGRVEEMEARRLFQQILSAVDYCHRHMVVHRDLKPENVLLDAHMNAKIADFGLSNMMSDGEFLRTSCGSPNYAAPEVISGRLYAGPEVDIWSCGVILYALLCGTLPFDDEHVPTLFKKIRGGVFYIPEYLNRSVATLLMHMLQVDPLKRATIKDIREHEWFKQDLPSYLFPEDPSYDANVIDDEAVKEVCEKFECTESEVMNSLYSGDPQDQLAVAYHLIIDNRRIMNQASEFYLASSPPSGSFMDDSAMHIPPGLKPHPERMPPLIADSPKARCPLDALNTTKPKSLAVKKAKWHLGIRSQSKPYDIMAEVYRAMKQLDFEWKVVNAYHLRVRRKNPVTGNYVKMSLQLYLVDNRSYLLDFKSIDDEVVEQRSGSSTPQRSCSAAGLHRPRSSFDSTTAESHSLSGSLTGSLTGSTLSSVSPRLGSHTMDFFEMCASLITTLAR
T1 sequence (O43741 whole entry): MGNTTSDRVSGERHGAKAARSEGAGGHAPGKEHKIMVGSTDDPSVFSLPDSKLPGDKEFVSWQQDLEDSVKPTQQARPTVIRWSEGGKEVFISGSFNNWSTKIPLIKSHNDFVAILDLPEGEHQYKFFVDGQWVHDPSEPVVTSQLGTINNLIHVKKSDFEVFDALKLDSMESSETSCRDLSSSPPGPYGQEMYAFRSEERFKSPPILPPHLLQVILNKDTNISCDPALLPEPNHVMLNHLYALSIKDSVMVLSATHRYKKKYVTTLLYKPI
T1 sequence (P54619 whole entry partner): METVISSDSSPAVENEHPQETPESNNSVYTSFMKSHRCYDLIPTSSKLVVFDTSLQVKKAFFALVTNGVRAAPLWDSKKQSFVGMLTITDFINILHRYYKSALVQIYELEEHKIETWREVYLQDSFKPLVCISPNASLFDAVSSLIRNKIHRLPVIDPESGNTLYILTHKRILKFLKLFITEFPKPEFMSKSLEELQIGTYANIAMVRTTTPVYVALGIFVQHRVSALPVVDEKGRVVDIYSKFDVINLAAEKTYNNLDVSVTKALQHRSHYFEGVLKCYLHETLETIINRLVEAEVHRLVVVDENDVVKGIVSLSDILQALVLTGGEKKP

What is called Emax is the greatest response seen or fitted, relative to the assay's reference. On to `COCCCc1cnc2c(c1)CCC2Nc1nc2nc(O[C@@H]3CO[C@H]4[C@@H]3OC[C@H]4O)[nH]c2cc1Cl` (single isomer, unassigned) [Compound I-1-10], for which the “EC150 (compound concentration showing 150% relative to the control (100%))” value was found to be 8.4 nM and the Emax was found to be 608%.
For `COC/C=C/c1cnc2c(c1)CCC2Nc1nc2nc(O[C@@H]3CO[C@H]4[C@@H]3OC[C@H]4O)[nH]c2cc1Cl` (single isomer, unassigned) [Compound I-1-13], in that order: 2 nM and 604%.
For `COC/C=C/c1cc(F)c2c(c1)CCC2Oc1nc2nc(O[C@@H]3CO[C@H]4[C@@H]3OC[C@H]4O)[nH]c2cc1Cl` (single isomer, unassigned) [Compound I-1-19], in that order: 3.5 nM and 404%.
For `Cn1cc(-c2cc(F)c3c(c2)CCC3Oc2nc3nc(O[C@@H]4CO[C@H]5[C@@H]4OC[C@H]5O)[nH]c3cc2Cl)cn1` (single isomer, unassigned) [Compound I-1-20], in that order: 4.3 nM and 403%.
`Cn1ccc(-c2cc(F)c3c(c2)CCC3Oc2nc3nc(O[C@@H]4CO[C@H]5[C@@H]4OC[C@H]5O)[nH]c3cc2Cl)cc1=O` (single isomer, unassigned) [Compound I-1-23]: the “EC150 (compound concentration showing 150% relative to the control (100%))” value was found to be 1.3 nM and the Emax was 454%.
For `Cn1cc(-c2cc(F)c3c(c2)CCC3Nc2nc3nc(O[C@@H]4CO[C@H](CO)C4)[nH]c3cc2Cl)cn1` (single isomer, unassigned) [Compound I-1-29], in that order: 1.9 nM and 426%.
For `O[C@@H]1CO[C@H]2[C@@H]1OC[C@H]2Oc1nc2nc(NC3CCc4cc(Br)cnc43)c(Cl)cc2[nH]1` (stereo partly drawn) [Compound I-1-4], in that order: 11 nM and 547%.
For `OC/C=C/c1cnc2c(c1)CCC2Nc1nc2nc(O[C@@H]3CO[C@H]4[C@@H]3OC[C@H]4O)[nH]c2cc1Cl` (stereo partly drawn) [Compound I-1-6], in that order: 6.8 nM and 516%.
Regarding `Cn1cc(-c2cnc3c(c2)CCC3Nc2nc3nc(O[C@@H]4CO[C@H]5[C@@H]4OC[C@H]5O)[nH]c3cc2Cl)cn1` (stereo partly drawn) [Compound I-1-7], the “EC150 (compound concentration showing 150% relative to the control (100%))” value worked out at 1.6 nM and the Emax came out at 614%.
For `COCCOc1cnc2c(c1)CCC2Nc1nc2nc(O[C@@H]3CO[C@H]4[C@@H]3OC[C@H]4O)[nH]c2cc1Cl` (stereo partly drawn) [Compound I-1-11], in that order: 9.8 nM and 606%.
With `COCCNc1cnc2c(c1)CCC2Nc1nc2nc(O[C@@H]3CO[C@H]4[C@@H]3OC[C@H]4O)[nH]c2cc1Cl` (stereo partly drawn) [Compound I-1-14], the “EC150 (compound concentration showing 150% relative to the control (100%))” value is 33 nM and the Emax came to 371%.
Take `Cn1cc(-c2cnc3c(c2)CCC3Oc2nc3nc(O[C@@H]4CO[C@H]5[C@@H]4OC[C@H]5O)[nH]c3cc2Cl)cn1` (stereo partly drawn) [Compound I-1-15]: the “EC150 (compound concentration showing 150% relative to the control (100%))” value is listed as 10 nM and the maximal effect (Emax) came to 388%.
For `COC/C=C/c1cc(F)c2c(c1)CCC2Nc1nc2[nH]c(O[C@@H]3CO[C@H](CO)C3)nc2cc1Cl` (stereo partly drawn) [Compound I-1-24], in that order: 25 nM and 423%.
For `OCCOc1cc(F)c2c(c1)CCC2Nc1nc2nc(O[C@@H]3CO[C@H]4[C@@H]3OC[C@H]4O)[nH]c2cc1Cl` (stereo partly drawn) [Compound I-1-32], in that order: 2.3 nM and 389%.
For `O[C@@H]1CO[C@H]2[C@@H]1OC[C@H]2Oc1nc2nc(NC3CCc4cc(OC5CCOCC5)cc(F)c43)c(Cl)cc2[nH]1` (stereo partly drawn) [Compound I-1-35], the “EC150 (compound concentration showing 150% relative to the control (100%))” value is given as 4.3 nM and the Emax was 402%.
